Assay results taken from publication PMC8963254, “Effects of Lysine N-ζ-Methylation in Ultrashort Tetrabasic Lipopeptides (UTBLPs) on the Potentiation of Rifampicin, Novobiocin, and Niclosamide in Gram-Negative Bacteria” (Antibiotics, 2022).
Values after ≈ are worked out from the molar mass of the structure shown. Values joined by “and” are separate entries in the source; they are usually repeats but may differ in a detail not shown here. Equal values may be shown once.

How the values were obtained:
[1] = test system: P. aeruginosa PA259-96196; test: microbe, parasite or virus in culture; assay type: cell-based, Pseudomonas aeruginosa; details: Pseudomonas aeruginosa, PA25996196, 18 h; P. aeruginosa 259-96196; read-out: MICs of various antibiotics
Protocol: (§1) The in vitro antibacterial activity of the UTBLPs was assessed against wild-type and clinically isolated bacterial strains. To obtain the MIC of the compounds, the microbroth dilution susceptibility assay was performed according to the Clinical and Laboratory Standards Institute (CLSI, Wayne, PA, USA) guidelines and as previously described. Briefly, the compounds at varying concentrations were incubated with bacterial inoculum (5 × 10^5 CFU/mL final concentration) at 37 °C for 18 h. Growth in the form of turbidity was confirmed using an EMax Plus microplate reader (Molecular Devices, San Jose, CA, USA) at 590 nm.

[2] = test system: P. aeruginosa PA262-101856; test: microbe, parasite or virus in culture; assay type: cell-based, Pseudomonas aeruginosa; details: Pseudomonas aeruginosa, PA262101856, 18 h; P. aeruginosa 262-101856; read-out: MICs of various antibiotics
Protocol: as §1

E. coli 94393 = test: microbe, parasite or virus in culture; assay type: cell-based, Escherichia coli; details: Escherichia coli, 18 h; E. coli 94393 (mcr-1 +); read-out: MICs of various antibiotics
Protocol: as §1

E. coli 94474 = test: microbe, parasite or virus in culture; assay type: cell-based, Escherichia coli; details: Escherichia coli, 18 h; E. coli 94474 (mcr-1 +); read-out: MICs of various antibiotics
Protocol: as §1

E. cloacae 118564 = test: microbe, parasite or virus in culture; assay type: cell-based, Enterobacter cloacae; details: Enterobacter cloacae, 18 h; E. cloacae 118564; read-out: MICs of various antibiotics
Protocol: as §1

K. pneumoniae 113250 = test: microbe, parasite or virus in culture; assay type: cell-based, Klebsiella pneumoniae; details: Klebsiella pneumoniae, 18 h; K. pneumoniae 113250; read-out: MICs of various antibiotics
Protocol: as §1

A. baumannii AB027 = test: microbe, parasite or virus in culture; assay type: cell-based, Acinetobacter baumannii; details: Acinetobacter baumannii, 18 h; A. baumannii AB027; read-out: MICs of various antibiotics
Protocol: as §1

P. aeruginosa PAO1 = assay type: cell-based, Pseudomonas aeruginosa; details: chloramphenicol alone
Protocol: (§2) The synergy of the UTBLPs with various antibiotics was assessed using checkerboard assay as previously described. Briefly, the combination of antibiotic and OMP at varying concentrations were incubated with bacterial inoculum (5 × 10^5 CFU/mL final concentration) at 37 °C for 18 h. Growth in the form of turbidity was confirmed using an EMax Plus microplate reader (Molecular Devices, Union City, CA, USA) at 590 nm. Fractional inhibitory concentration index (FICI) was used to evaluate the interaction between the antibiotic and the OMP. FICI is the sum of the FIC of the antibiotic and the FIC of the OMP. The FIC value is calculated by dividing the MIC of the agents in combination by the MIC of the agent alone. FICI ≤ 0.5 is synergistic, 0.5 < x ≤ 4 is additive, and >4 is antagonistic.

A. baumannii ATCC 17978 = assay type: cell-based, Acinetobacter baumannii; details: chloramphenicol alone
Protocol: as §2

MRSA ATCC 33592 = assay type: cell-based, Staphylococcus aureus; details: chloramphenicol alone
Protocol: as §2

S. aureus ATCC 29213 = assay type: cell-based, Staphylococcus aureus; details: chloramphenicol alone
Protocol: as §2

MRSE 61589 = assay type: cell-based, Staphylococcus epidermidis; details: chloramphenicol alone
Protocol: as §2

MSSE 81388 = assay type: cell-based, Staphylococcus epidermidis; details: chloramphenicol alone
Protocol: as §2

E. faecalis ATCC 29212 = assay type: cell-based, Enterococcus faecalis; details: chloramphenicol alone
Protocol: as §2

E. faecium ATCC 27270 = assay type: cell-based, Enterococcus faecium; details: chloramphenicol alone
Protocol: as §2

Structure (SMILES)	MIC [1]	MIC [2]	MIC (E. coli 94393)	MIC (E. coli 94474)	MIC (E. cloacae 118564)	MIC (K. pneumoniae 113250)	MIC (A. baumannii AB027)	MICantibiotic (P. aeruginosa PAO1)	MICantibiotic (A. baumannii ATCC 17978)	MICchloramphenicol (MRSA ATCC 33592)	MICchloramphenicol (S. aureus ATCC 29213)	MICchloramphenicol (MRSE 61589)	MICchloramphenicol (MSSE 81388)	MICchloramphenicol (E. faecalis ATCC 29212)	MICchloramphenicol (E. faecium ATCC 27270)
CO/N=C(\C(=O)N[C@@H]1C(=O)N2C(C(=O)O)=C(CSc3nc(=O)c(=O)[nH]n3C)CS[C@H]12)c1csc(N)n1 [CTR, ceftriaxone]	> 64 µg/mL	64 µg/mL (≈ 115 µM)													
C[C@@H](O)[C@H]1C(=O)N2C(C(=O)O)=C(S[C@@H]3CN[C@H](CNS(N)(=O)=O)C3)[C@H](C)[C@H]12 [DOR, doripenem]	> 1020 µg/mL	16 µg/mL (≈ 38 µM)													
C[C@@H](O)[C@H]1C(=O)N2C(C(=O)O)=C(S[C@@H]3CN[C@H](C(=O)Nc4cccc(C(=O)O)c4)C3)[C@H](C)[C@H]12 [ETP, ertapenem]	> 32 µg/mL	> 32 µg/mL	≤ 0.03 µg/mL	≤ 0.03 µg/mL		≤ 0.03 µg/mL									
CNC(C)C1CCC(N)C(OC2C(N)CC(N)C(OC3OCC(C)(O)C(NC)C3O)C2O)O1 (stereo not drawn) [GEN, gentamicin]	> 32 µg/mL	> 32 µg/mL	≤ 0.5 µg/mL	16 µg/mL (≈ 33.5 µM)	1 µg/mL (≈ 2.09 µM)	≤ 0.5 µg/mL	32 µg/mL (≈ 67 µM)								

Further molecules by falling MIC [1], results first:

MIC [1]	MIC [2]	MIC (E. coli 94393)	MIC (E. coli 94474)	MIC (E. cloacae 118564)	MIC (K. pneumoniae 113250)	MIC (A. baumannii AB027)	MICantibiotic (P. aeruginosa PAO1)	MICantibiotic (A. baumannii ATCC 17978)	MICchloramphenicol (MRSA ATCC 33592)	MICchloramphenicol (S. aureus ATCC 29213)	MICchloramphenicol (MRSE 61589)	MICchloramphenicol (MSSE 81388)	MICchloramphenicol (E. faecalis ATCC 29212)	MICchloramphenicol (E. faecium ATCC 27270)	Structure (SMILES)
2050 µg/mL (≈ 4500 µM)	128 µg/mL (≈ 281 µM)					> 256 µg/mL									CO/N=C(\C(=O)N[C@@H]1C(=O)N2C(C(=O)O)=C(COC(C)=O)CS[C@H]12)c1csc(N)n1 [CTX, cefotaxime]
1020 µg/mL (≈ 3170 µM)	2050 µg/mL (≈ 6340 µM)	4 µg/mL (≈ 12.4 µM)	4 µg/mL (≈ 12.4 µM)		4 µg/mL (≈ 12.4 µM)	128 µg/mL (≈ 396 µM)	32 µg/mL and 16 µg/mL	128 µg/mL and 64 µg/mL	64 µg/mL	8 µg/mL and 16 µg/mL	8 µg/mL and 16 µg/mL	4 µg/mL and 8 µg/mL	4 µg/mL and 8 µg/mL	8 µg/mL and 4 µg/mL	O=C(N[C@H](CO)[C@H](O)c1ccc([N+](=O)[O-])cc1)C(Cl)Cl [Chloramphenicol, chloramphenicol, reference compound]
512 µg/mL (≈ 937 µM)	16 µg/mL (≈ 29.3 µM)	≤ 0.25 µg/mL	0.5 µg/mL (≈ 0.915 µM)	0.5 µg/mL (≈ 0.915 µM)	0.5 µg/mL (≈ 0.915 µM)										CC(C)(O/N=C(\C(=O)N[C@@H]1C(=O)N2C(C(=O)[O-])=C(C[n+]3ccccc3)CS[C@H]12)c1csc(N)n1)C(=O)O [CAZ, ceftazidime]
32 µg/mL (≈ 73.5 µM)	32 µg/mL (≈ 73.5 µM)	≤ 0.12 µg/mL	≤ 0.12 µg/mL	≤ 0.12 µg/mL	≤ 0.12 µg/mL										C[C@H]1[C@H](NC(=O)/C(=N\OC(C)(C)C(=O)O)c2csc(N)n2)C(=O)N1S(=O)(=O)O [AZT, aztreonam]
32 µg/mL (≈ 72 µM)	1020 µg/mL (≈ 2300 µM)	4 µg/mL (≈ 9 µM)	> 32 µg/mL	4 µg/mL (≈ 9 µM)	2 µg/mL (≈ 4.5 µM)										C[C@H]1c2cccc(O)c2C(=O)C2=C(O)[C@]3(O)C(=O)C(C(N)=O)=C(O)[C@@H](N(C)C)[C@@H]3[C@@H](O)[C@@H]21 [DOX, doxycycline]
8 µg/mL (≈ 14.3 µM)	8 µg/mL (≈ 14.3 µM)	0.5 µg/mL (≈ 0.895 µM)	1 µg/mL (≈ 1.79 µM)		1 µg/mL (≈ 1.79 µM)	0.5 µg/mL (≈ 0.895 µM)									CN(C)[C@@H]1C(O)=C(C(N)=O)C(=O)[C@@]2(O)C(O)=C3C(=O)c4c(O)c(NC(=O)CN5CCCC5)cc(F)c4C[C@H]3C[C@@H]12 [ERC, eravacycline]
